The values below are quoted from earlier work in patent US8673971B2, “Derivatives of 4-nerolidylcatechol, pharmaceutical compositions comprising them and process for producing the same” (Instituto Nacional de Pesquisa de Amazonia INPA, priority 2007, dated 2014).

For series [1] the following is noted: tests based on co-oxidation of substrate (β-carotene, linoleic acid); greater than α-tocoferol.

The structures appear in SMILES notation.

With `C=CC(C)(CCC=C(C)CCC=C(C)C)c1ccc(O)c(O)c1` (centres unmarked) [4-nerolidylcatechol], the water solubility result is given as “low water solubility”. Also, the “in vitro antioxidant activity relative to α-tocoferol” value in series [1] is 20 times.
